Experimental data as given in patent US10729815B2, “Combined treatment for nerve injuries” (Ramot at Tel-Aviv University Ltd., priority 2016, dated 2020).

Assays:
[1] = tested on: astrocytes cultures of human brain cells, derived from astrocytoma, U-87 MG; assay: In-vitro effect of anti-gliotic agents on astrocytes survival (cell counting); type: cell-based; conditions: 48 h
Experimental: (§1) Cell culture—Astrocytes cultures of human brain cells, derived from astrocytoma, U-87 MG (ATCC® HTB-14™, American Type Culture Collection, Rockville, Md., USA) were cultured in growth medium [10% Fetal Bovine Serum (FBS) and 1% Penicillin-Streptomycin solution (PS) in Minimum Essential Medium (MEM)]. […] The cell suspension (5×10^5 cells/well) was seeded into a 6-well plate (500 μl/well) containing 1.5 ml/well of assay medium, incubated for 24±1 hours at […], 5% CO2, and then examined microscopically. Following, at 90% cell confluence, the plates were treated according to the following groups:
(§2) The anti-gliotic agents were added as follows: Chondroitinase ABC (0.2 U/ml), Collagenase (2 mg, 50 μl), β-D-Xyloside (2.5 mM, 20 μl), MMPs-3 (0.5 μg, 20 μl), Anti TGFβ 1,2&3 (10 μg, 20 μl), Mitomycin C (50 μg, 25 μl), ACE human recombinant (0.5 μg, 25 μl) and Anti-Nogo A (5 U, 25 μl).

[2] = tested on: astrocytes cultures of human brain cells, derived from astrocytoma, U-87 MG; assay: In-vitro effect of anti-gliotic agents on 35S-GAG accumulation in activated astrocytes; type: cell-based; conditions: 48 h
Experimental: as §1, §2
Astrocytes activation causes glycosaminoglycans (GAGs) accumulation in cultures, both intracellularly, pericellularly and extracellularly. Therefore, GAGs can serve as a tracer for either formation or elimination of the scar barrier.

[3] = astrocytes activated with Bt2-cAMP 1 mM + theophylline 0.25 mM plus the anti-gliotic agent
[4] = activated with Bt2-cAMP + theophylline plus anti-gliotic agent
[5] = activated with Bt2-cAMP + theophylline plus anti-gliotic agent, values multiplied 6 times (normalized to vital cell survivors)

## Collagenase
[1]; [3]
  % of cells (cell percentage in astrocyte cultures relative to untreated cultures): 39.1%
[2]; [4]
  % of Isolated 35S-GAGs (relative to the theophylline control): 66.1%
[2]; [5]
  Isolated 35S-GAGs Average + SD: 51,371 + 10,556

## MMPs-3: MMP-3-Matrix Metalloproteinase, human Stromlysin STR1 (Sigma SRP 7783)
[1]; [3]
  % of cells (cell percentage in astrocyte cultures relative to untreated cultures): 23.2%
[2]; [4]
  % of Isolated 35S-GAGs (relative to the theophylline control): 82.3%
[2]; [5]
  Isolated 35S-GAGs Average + SD: 63,941 + 11,374

## Chondroitinase ABC
[1]; [3]
  % of cells (cell percentage in astrocyte cultures relative to untreated cultures): 33.1%
[2]; [4]
  % of Isolated 35S-GAGs (relative to the theophylline control): 5.5%
[2]; [5]
  Isolated 35S-GAGs Average + SD: 4,299 + 939

## O=[N+]([O-])c1ccc(O[C@@H]2OC[C@@H](O)[C@H](O)[C@H]2O)cc1 [β-D-Xyloside, 4-Nitrophenyl β-D-xylopyranoside, reference compound]
[1]; [3]
  % of cells (cell percentage in astrocyte cultures relative to untreated cultures): 54.7%
[2]; [4]
  % of Isolated 35S-GAGs (relative to the theophylline control): 78.5%
[2]; [5]
  Isolated 35S-GAGs Average + SD: 61,016 + 21,506

## CCCC(=O)Nc1ncnc2c1ncn2[C@@H]1O[C@@H]2COP(=O)([O-])O[C@H]2[C@H]1OC(=O)CCC.[Na+] [Bt2-cAMP, N6,2′-O-Dibutyryladenosine 3′,5′-cyclic monophosphate, sodium salt, reference compound]
[1]; activator(s) only, no anti-gliotic agent, Bt2-cAMP 1 mM, theophylline 0.25 mM
  % of cells (cell percentage in astrocyte cultures relative to untreated cultures): 32.8%
[2]; activator(s) only, theophylline well multiplied 6 times (normalized to vital cell survivors)
  Isolated 35S-GAGs Average + SD: 34,872 + 2,946

B1: ACE human recombinant: Angiotensin Converting Enzyme Human recombinant (Biotest 929-ZN) (protein, UniProt P12821 30-1306, looked up)
Angiotensin-converting enzyme: LDPGLQPGNFSADEAGAQLFAQSYNSSAEQVLFQSVAASWAHDTNITAENARRQEEAALLSQEFAEAWGQKAKELYEPIWQNFTDPQLRRIIGAVRTLGSANLPLAKRQQYNALLSNMSRIYSTAKVCLPNKTATCWSLDPDLTNILASSRSYAMLLFAWEGWHNAAGIPLKPLYEDFTALSNEAYKQDGFTDTGAYWRSWYNSPTFEDDLEHLYQQLEPLYLNLHAFVRRALHRRYGDRYINLRGPIPAHLLGDMWAQSWENIYDMVVPFPDKPNLDVTSTMLQQGWNATHMFRVAEEFFTSLELSPMPPEFWEGSMLEKPADGREVVCHASAWDFYNRKDFRIKQCTRVTMDQLSTVHHEMGHIQYYLQYKDLPVSLRRGANPGFHEAIGDVLALSVSTPEHLHKIGLLDRVTNDTESDINYLLKMALEKIAFLPFGYLVDQWRWGVFSGRTPPSRYNFDWWYLRTKYQGICPPVTRNETHFDAGAKFHVPNVTPYIRYFVSFVLQFQFHEALCKEAGYEGPLHQCDIYRSTKAGAKLRKVLQAGSSRPWQEVLKDMVGLDALDAQPLLKYFQPVTQWLQEQNQQNGEVLGWPEYQWHPPLPDNYPEGIDLVTDEAEASKFVEEYDRTSQVVWNEYAEANWNYNTNITTETSKILLQKNMQIANHTLKYGTQARKFDVNQLQNTTIKRIIKKVQDLERAALPAQELEEYNKILLDMETTYSVATVCHPNGSCLQLEPDLTNVMATSRKYEDLLWAWEGWRDKAGRAILQFYPKYVELINQAARLNGYVDAGDSWRSMYETPSLEQDLERLFQELQPLYLNLHAYVRRALHRHYGAQHINLEGPIPAHLLGNMWAQTWSNIYDLVVPFPSAPSMDTTEAMLKQGWTPRRMFKEADDFFTSLGLLPVPPEFWNKSMLEKPTDGREVVCHASAWDFYNGKDFRIKQCTTVNLEDLVVAHHEMGHIQYFMQYKDLPVALREGANPGFHEAIGDVLALSVSTPKHLHSLNLLSSEGGSDEHDINFLMKMALDKIAFIPFSYLVDQWRWRVFDGSITKENYNQEWWSLRLKYQGLCPPVPRTQGDFDPGAKFHIPSSVPYIRYFVSFIIQFQFHEALCQAAGHTGPLHKCDIYQSKEAGQRLATAMKLGFSRPWPEAMQLITGQPNMSASAMLSYFKPLLDWLRTENELHGEKLGWPQYNWTPNSARSEGPLPDSGRVSFLGLDLDAQQARVGQWLLLFLGIALLVATLGLSQRLFSIRHRSLHRHSHGPQFGSEVELRHS
[1]; [3]
  % of cells (cell percentage in astrocyte cultures relative to untreated cultures): 70.4%
[2]; [4]
  % of Isolated 35S-GAGs (relative to the theophylline control): 22.9%
[2]; [5]
  Isolated 35S-GAGs Average + SD: 17,814 + 2,201
